How the values were obtained:
Vero E6 cells = details: substances solubilized in DMSO, luminescence kit for quantification of viable cells
Text: The substances were solubilized in dimethyl sulfoxide (DMSO) and renal epithelial cells (Vero E6 ATCC® CRL-1586™) were used for the test. The experimental procedure used was divided into 3 steps: • 1) Evaluation of cytotoxicity (amount of dead cells) of DMSO on Vero E6 cells compared to the negative control, i.e., compared to Vero E6 cells not treated with DMSO; • 2) Evaluation of cytotoxicity of the single substances dissolved in DMSO on Vero E6 cells compared to the negative control, i.e., compared to Vero E6 cells not treated with DMSO; • 3) Evaluation of inhibition of the infection of Vero E6 cells by Sars-Cov-2 (around 10^5 viral particles/mL) compared to the positive control, i.e., Vero E6 cells infected but not treated with any phytotherapeutic substance.
The substances were administered to Vero E6 cells at different concentrations gradually decreasing towards lower concentrations. Cytotoxicity was evaluated using a luminescence kit for the quantification of viable cells.

Sars-CoV-2 = experiment: Test of inhibition of Sars-CoV-2 viral infection of Vero E6 cells; assay type: cell-based; details: Severe acute respiratory syndrome coronavirus 2, Vero C1008, read-out: viable cells
Method: The substances were evaluated in the concentration ranges from […]. With the same concentration (0.015 mg/mL) maximum efficacy was obtained with Curcumin (94% viable cells), followed by Emodin (89% viable cells), α-Hederine (71% viable cells) and Thymoquinone (73% viable cells).

Row | Compound | concentrations tolerated by the cells (Vero E6 cells) | viability at 15 µg/mL (Sars-CoV-2)
1 | COc1cc(/C=C/C(=O)/C=C(O)/C=C/c2ccc(O)c(OC)c2)ccc1O [curcumin] | 0.015 mg/mL | 94%
2 | CC1=CC(=O)C(C(C)C)=CC1=O [thymoquinone] | 0.0075 mg/mL | 73%
3 | Cc1cc(O)c2c(c1)C(=O)c1cc(O)cc(O)c1C2=O [emodin] | 0.06 mg/mL | 89%
4 | C[C@@H]1O[C@@H](O[C@H]2[C@H](O[C@H]3CC[C@@]4(C)[C@@H](CC[C@]5(C)[C@@H]4CC=C4[C@@H]6CC(C)(C)CC[C@]6(C(=O)O)CC[C@]45C)[C@]3(C)CO)OC[C@@H](O)[C@@H]2O)[C@H](O)[C@H](O)[C@H]1O [α-hederine] | 0.0075 mg/mL | 71%

Source: patent US20240237641A1, “COMPOSITION COMPRISING GRAPHENE FOR THE TREATMENT OF TEXTILE ARTICLES AND TEXTILE ARTICLES TREATED” (DIRECTA PLUS S.P.A., priority 2021, published 2024)
